According to US11440913B2, “Aminoimidazopyridazines as kinase inhibitors” (BRISTOL-MYERS SQUIBB COMPANY, priority 2017, dated 2022):
Counter-ions that a name gives are not always drawn. Like-named read-outs stand apart in the source and are kept apart here.

Tests used:
[1] = biological target: His-GST-TVMV-hRIPK1(1-324) (Homo sapiens (Human), UniProt Q13546); test: RIPK1 HTRF Binding Assay; settings: HTRF binding, 1 h at rt; read-out: RIPK1 (IC50)
In short: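 HTRF probe-displacement binding: 1 nM His-GST-TVMV-hRIPK1(1-324) (baculovirus construct), 90.6 nM probe, 0.2 nM anti-GST-Tb in 20 mM HEPES, 10 mM MgCl2, 0.015% Brij-35, 4 mM DTT, 0.05 mg/mL BSA. Incubated 1 h at rt; FRET 520/495 nm ratio, inhibition relative to DMSO-only wells.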

[2] = system: MLKL phosphorylation in HT29-L23 human colorectal adenocarcinoma cells; test: MLKL Phosphorylation High-Content Assay; type: cell-based; settings: 6 h, necroptosis induced with TNFα, SMAC mimetic and Z-VAD, read-out: pMLKL (IC50)
In short: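 HT29-L23 cells pretreated 30 min at 37 °C with compound (6.25 to 0.106 μM final), then necroptosis induced with TNFα 35 ng/mL, SMAC mimetic 700 nM and Z-VAD 140 nM for 6 h. Fixed cells immunostained for MLKL pS358 and imaged; IC50 and Ymax from 4-parameter logistic fit.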

Sequence of His-GST-TVMV-hRIPK1(1-324) (Q13546 1-324): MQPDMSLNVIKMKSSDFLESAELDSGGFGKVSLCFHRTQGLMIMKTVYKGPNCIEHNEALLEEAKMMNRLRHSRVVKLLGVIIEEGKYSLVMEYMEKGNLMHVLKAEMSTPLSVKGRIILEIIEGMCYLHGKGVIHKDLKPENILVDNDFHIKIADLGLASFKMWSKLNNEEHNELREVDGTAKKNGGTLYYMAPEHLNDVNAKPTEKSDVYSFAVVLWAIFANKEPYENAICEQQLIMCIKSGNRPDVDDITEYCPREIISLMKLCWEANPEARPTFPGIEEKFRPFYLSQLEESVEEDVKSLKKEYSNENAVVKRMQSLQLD

In the case of [2H]C([2H])([2H])Oc1nc(C)c(-c2ccc3nc(NC(C)=O)cn3n2)cc1C(=O)NCc1ccc(F)c(F)c1OCC1CC1 [Example 176, N-{[2-(cyclopropylmethoxy)-3,4-difluorophenyl]methyl}-5-{2-acetamidoimidazo[1,2-b]pyridazin-6-yl}-2-(deutero)methoxy-6-methylpyridine-3-carboxamide], the IC50 [1] is reported as 10 nM and the IC50 ([2]; Homo sapiens) is reported as 12 nM.
With CC(=O)Nc1cn2nc(-c3cnc(C)c(C(=O)NCc4cc(F)cc(F)c4OC4CCOC(C)C4)c3)ccc2n1 (stereo not shown) [Example 188, N-({3,5-difluoro-2-[(2-methyloxan-4-yl)oxy]phenyl}methyl)-5-{2-acetamidoimidazo [1,2-b]pyridazin-6-yl}-2-methylpyridine-3-carboxamide] the IC50 [1] was 22 nM and the IC50 ([2]; Homo sapiens) was 217 nM.
Work on CC(=O)Nc1cn2nc(-c3cc(C(=O)NCc4ccccc4OCC4CC4)c(C)nc3C)ccc2n1 [Example 83, N-{[2-(cyclopropylmethoxy)phenyl]methyl}-5-{2-acetamidoimidazo[1,2-b]pyridazin-6-yl}-2,6-dimethylpyridine-3-carboxamide] yielded an IC50 [1] of 5 nM and an IC50 [2] of 7 nM.
CC(=O)Nc1cn2nc(-c3cnc(C)c(C(=O)NCc4ccccc4OCC4CC4)c3)ccc2n1 [Example 227, N-{[2-(cyclopropylmethoxy)phenyl]methyl}-5-{2-acetamidoimidazo [1,2-b]pyridazin-6-yl}-2-methylpyridine-3-carboxamide] gave an IC50 [1] of 8 nM and an IC50 ([2]; Homo sapiens) of 21 nM.
COc1nc(C)c(-c2ccc3nc(NC(C)=O)cn3n2)cc1C(=O)NC(C)c1cc(C(F)(F)F)ccc1F (stereo not shown) [Example 277, 5-{2-acetamidoimidazo[1,2-b]pyridazin-6-yl}-N-{1-[2-fluoro-5-(trifluoromethyl)phenyl]ethyl}-2-methoxy-6-methylpyridine-3-carboxamide] showed an IC50 [1] of 107 nM and an IC50 [2] of 263 nM.
Work on COc1ncc(-c2ccc3nc(NC(C)=O)cn3n2)cc1C(=O)NCc1ccccc1S(=O)(=O)C1CC1 [Example 158, N-{[2-(cyclopropanesulfonyl)phenyl]methyl}-5-{2-acetamidoimidazo[1,2-b]pyridazin-6-yl}-2-methoxypyridine-3-carboxamide] yielded an IC50 [1] of 31 nM and an IC50 ([2]; Homo sapiens) of 336 nM.
For COc1nc(C)c(-c2ccc3nc(NC(C)=O)cn3n2)cc1C(=O)NCc1cccnc1OCC1CCC1 [Example 314, N-{[2-(cyclobutylmethoxy)pyridin-3-yl]methyl}-5-{2-acetamidoimidazo[1,2-b]pyridazin-6-yl}-2-methoxy-6-methylpyridine-3-carboxamide], the IC50 [1] was 5 nM and the IC50 ([2]; Homo sapiens) was 3 nM.
Compound CC(=O)Nc1cn2nc(-c3ccc(C)c(C(=O)NCc4cc(F)cc(F)c4C(=O)N4CC[C@H](O)C4)c3)ccc2n1 [Example 407, N-({3,5-difluoro-2-[(3S)-3-hydroxypyrrolidine-1-carbonyl]phenyl}methyl)-5-{2-acetamidoimidazo [1,2-b]pyridazin-6-yl}-2-methylbenzamide] has an IC50 [1] of 37 nM and an IC50 ([2]; Homo sapiens) of 388 nM.
COc1ncc(-c2ccc3nc(NC(C)=O)cn3n2)cc1C(=O)NCc1ccccc1-n1cccc1 [Example 160, 5-{2-acetamidoimidazo[1,2-b]pyridazin-6-yl}-2-methoxy-N-{[2-(1H-pyrrol-1-yl)phenyl]methyl}pyridine-3-carboxamide] was tested, and the IC50 [1] was 489 nM and the IC50 ([2]; Homo sapiens) was 331 nM.
Work on CC(=O)Nc1cn2nc(-c3cc(C(=O)NCCC(C)c4ccccc4)cnc3C)ccc2n1 (stereo not shown) [Example 231, 5-{2-acetamidoimidazo[1,2-b]pyridazin-6-yl}-6-methyl-N-(3-phenylbutyl)pyridine-3-carboxamide] yielded an IC50 [1] of 6 nM and an IC50 [2] of 60 nM.
Compound CC(=O)Nc1nc2ccc(-c3cnc(C)c(C(=O)NCc4cc(C(F)(F)F)ccc4F)c3)nn2c1C [Example 252, 5-{2-acetamido-3-methylimidazo[1,2-b]pyridazin-6-yl}-N-{[2-fluoro-5-(trifluoromethyl)phenyl]methyl}-2-methylpyridine-3-carboxamide] has an IC50 [1] of 27 nM and an IC50 ([2]; Homo sapiens) of 133 nM.
Work on COc1nc(C)c(-c2ccc3nc(NC(C)=O)cn3n2)cc1C(=O)NCc1cc(F)cc(F)c1OCC1CC1 [Example 287, N-{[2-(cyclopropylmethoxy)-3,5-difluorophenyl](deutero)methyl}-5-{2-acetamidoimidazo[1,2-b]pyridazin-6-yl}-2-methoxy-6-methylpyridine-3-carboxamide] yielded an IC50 [1] of 4 nM and an IC50 [2] of 2 nM.
Work on COc1ncc(-c2ccc3nc(NC(C)=O)cn3n2)cc1C(=O)NCc1cc(F)cc(F)c1OCC1CC1 [Example 121, N-({2-[cyclopropyl(deutero)methoxy]-3,5-difluorophenyl}methyl)-5-{2-acetamidoimidazo[1,2-b]pyridazin-6-yl}-2-methoxypyridine-3-carboxamide] yielded an IC50 [1] of 3 nM and an IC50 [2] of 9 nM.
In the case of CC(=O)Nc1cn2nc(-c3cnc(C)c(C(=O)Nc4cn(Cc5ccccc5)cn4)c3)ccc2n1 [Example 351, N-(1-benzyl-1H-imidazol-4-yl)-5-{2-acetamidoimidazo [1,2-b]pyridazin-6-yl}-2-methylpyridine-3-carboxamide], the IC50 [1] is reported as 28 nM and the IC50 ([2]; Homo sapiens) is reported as 49 nM.
With CC(=O)Nc1cn2nc(-c3cnc(C)c(C(=O)NCc4cccc(F)c4OCC4CC4)c3)ccc2n1 [Example 212, N-{[2-(cyclopropylmethoxy)-3-fluorophenyl]methyl}-5-{2-acetamidoimidazo [1,2-b]pyridazin-6-yl}-2-methylpyridine-3-carboxamide] the IC50 [1] was 8 nM and the IC50 ([2]; Homo sapiens) was 4 nM.
COc1ncc(-c2ccc3nc(NC(C)=O)cn3n2)cc1C(=O)NCc1ccccc1OC1CCCC1 [Example 159, N-{[2-(cyclopentyloxy)phenyl]methyl}-5-{2-acetamidoimidazo[1,2-b]pyridazin-6-yl}-2-methoxypyridine-3-carboxamide] was tested, and the IC50 [1] was 3 nM and the IC50 ([2]; Homo sapiens) was 6 nM.
With COc1ncc(-c2ccc3nc(NC(C)=O)cn3n2)cc1C(=O)NCc1ccccc1CN1CCOCC1 [Example 113, 5-{2-acetamidoimidazo[1,2-b]pyridazin-6-yl}-2-methoxy-N-({2-[(morpholin-4-yl)methyl]phenyl}methyl)pyridine-3-carboxamide, 2 TFA] the IC50 [1] was 38 nM and the IC50 [2] was 298 nM.
Compound Cc1ccc(-c2ccc3nc(NC(=O)[C@H](C)O)cn3n2)cc1C(=O)NCc1cc(OC(F)(F)F)ccc1F [Example 395, (S)-N-(2-fluoro-5-(trifluoromethoxy)benzyl)-5-(2-(2-hydroxypropanamido)imidazo[1,2-b]pyridazin-6-yl)-2-methylbenzamide] has an IC50 [1] of 7 nM and an IC50 ([2]; Homo sapiens) of 25 nM.
For CC(=O)Nc1cn2nc(-c3cc(C(=O)NCc4cc(F)cc(F)c4OCC4CCCC4)c(C)nc3C)ccc2n1 [Example 90, N-{[2-(cyclopentylmethoxy)-3,5-difluorophenyl]methyl}-5-{2-acetamidoimidazo[1,2-b]pyridazin-6-yl}-2,6-dimethylpyridine-3-carboxamide], the IC50 [1] was 5 nM and the IC50 ([2]; Homo sapiens) was 3 nM.
Compound COc1ncc(-c2ccc3nc(NC(=O)C(C)C)cn3n2)cc1C(=O)NCc1ccc(F)c(F)c1OCC1CC1 [Example 264, N-{[2-(cyclopropylmethoxy)-3,4-difluorophenyl]methyl}-2-methoxy-5-[2-(2-methylpropanamido)imidazo[1,2-b]pyridazin-6-yl]pyridine-3-carboxamide, TFA] has an IC50 [1] of 55 nM and an IC50 [2] of 240 nM.
CC(=O)Nc1cn2nc(-c3ccc(C)c(C(=O)NCc4ccc(F)c(F)c4C(=O)N4CCC(F)(F)C4)c3F)ccc2n1 [Example 411, N-{[2-(3,3-difluoropyrrolidine-1-carbonyl)-3,4-difluorophenyl]methyl}-3-{2-acetamidoimidazo [1,2-b]pyridazin-6-yl}-2-fluoro-6-methylbenzamide] gave an IC50 [1] of 9 nM and an IC50 ([2]; Homo sapiens) of 25 nM.
CC(=O)Nc1cn2nc(-c3cnc(Cl)c(C(=O)NCc4cc(OC(F)(F)F)ccc4F)c3)ccc2n1 [Example 12, 2-chloro-5-{2-acetamidoimidazo[1,2-b]pyridazin-6-yl}-N-{[2-fluoro-5-(trifluoromethoxy)phenyl]methyl}pyridine-3-carboxamide] was tested, and the IC50 [1] was 5 nM and the IC50 ([2]; Homo sapiens) was 27 nM.
For COc1nc(C)c(-c2ccc3nc(NC(C)=O)cn3n2)cc1C(=O)NCc1cc(F)cc(F)c1OCC1CC1 [Example 300, N-{[2-(cyclopropylmethoxy)-3,5-difluorophenyl]methyl}-5-{2-acetamidoimidazo[1,2-b]pyridazin-6-yl}-2-methoxy-6-methylpyridine-3-carboxamide], the IC50 [1] was 4 nM and the IC50 ([2]; Homo sapiens) was 76 nM.
COc1ccc(F)c(CNC(=O)c2cc(-c3ccc4nc(NC(C)=O)cn4n3)cnc2OC)c1 [Example 100, 5-{2-acetamidoimidazo[1,2-b]pyridazin-6-yl}-N-[(2-fluoro-5-methoxyphenyl)methyl]-2-methoxypyridine-3-carboxamide] showed an IC50 [1] of 56 nM and an IC50 ([2]; Homo sapiens) of 203 nM.
With CC(=O)Nc1cn2nc(-c3cnc(C)c(C(=O)NC(C)c4ccccc4OC(F)(F)F)c3)ccc2n1 (stereo not shown) [Example 203, 5-{2-acetamidoimidazo[1,2-b]pyridazin-6-yl}-2-methyl-N-{1-[2-(trifluoromethoxy)phenyl]ethyl}pyridine-3-carboxamide] the IC50 [1] was > 5000 nM and the IC50 [2] was > 6250 nM.
In the case of COCC(=O)Nc1cn2nc(-c3cnc(OC)c(C(=O)NCc4cc(OC(F)(F)F)ccc4F)c3)ccc2n1 [Example 262, N-{[2-fluoro-5-(trifluoromethoxy)phenyl]methyl}-2-methoxy-5-[2-(2-methoxyacetamido)imidazo[1,2-b]pyridazin-6-yl]pyridine-3-carboxamide], the IC50 [1] is reported as 39 nM and the IC50 ([2]; Homo sapiens) is reported as 74 nM.
